From patent US5472966A, “Antidepressant heteroarylaminoalkyl derivatives of naphthyl-monazines” (Bristol-Myers Squibb Company, priority 1995, dated 1995)
Where a name gives a salt, the structure may show the parent alone.

test system: serotonin re-uptake (synaptosomal re-uptake of tritiated serotonin); assay: Inhibition of synaptosomal re-uptake of tritiated serotonin; type: biochemical; settings: in vitro; nM of test compound that inhibits uptake by 50%; read-out: SUI (Serotonin Uptake Inhibition potency), in vitro IC50
Procedure: Determination of endogenous monoaminergic re-uptake inhibition values for serotonin was accomplished using test methods described by P. Skolnick, et al., Br. J. Pharmacology, (1985), 86, pp. 637-644; with only minor modifications. In vitro IC50 (nM) test values were determined for representative compounds of Formula I based on their inhibition of synaptosomal re-uptake of tritiated serotonin. Test data IC50 values lower than 500 nM are considered to reflect activity as an inhibitor of serotonin re-uptake.

Structure (SMILES)	IC50 [nM]
COc1cccnc1N(C)CCCN1CC=C(c2cccc3ccccc23)CC1 [Example 14, 3,6-dihydro-N-(3-methoxy-2-pyridinyl)-N-methyl-4-(1-naphthalenyl)-1(2H)-pyridinepropanamine fumarate]	< 100
CCOc1cccnc1N(C)CCCN1CC=C(c2cccc3ccccc23)CC1 [Example 15, 3,6-dihydro-N-(3-ethoxy-2-pyridinyl)-N-methyl-4-(1-naphthalenyl)-1(2H)-pyridinepropanamine fumarate]	< 100
CN(CCCN1CC=C(c2cccc3ccccc23)CC1)c1cc(C(F)(F)F)ccn1 [Example 16, 3,6-dihydro-N-methyl-N-(4-trifluoromethyl-2-pyridinyl)-4-(1-naphthalenyl)-1(2H)-pyridinepropanamine fumarate]	< 100
CN(CCCN1CC=C(c2cccc3ccccc23)CC1)c1ccc(Cl)cn1 [Example 17, 3,6-dihydro-N-methyl-N-(5-chloro-2-pyridinyl)-4-(1-naphthalenyl)-1(2H)-pyridinepropanamine fumarate]	< 10
CN(CCCN1CC=C(c2cccc3ccccc23)CC1)c1cccc(C(F)(F)F)n1 [Example 18, 3,6-dihydro-N-methyl-N-(6-trifluoromethyl-2-pyridinyl)-4-(1-naphthalenyl)-1(2H)-pyridinepropanamine fumarate]	< 100
CN(CCCN1CC=C(c2cccc3ccccc23)CC1)c1cc(Cl)ccn1 [Example 19, 3,6.dihydro-N-methyl-N-(4-chloro-2-pyridinyl)-4-(1-naphthalenyl)-1(2H)-pyridinepropanamine]	< 100
CN(CCCN1CC=C(c2cccc3ccccc23)CC1)c1ccnc(Cl)c1 [Example 20, 3,6-dihydro-N-methyl-N-(2-chloro-4-pyridinyl)-4-(1-naphthalenyl)-1(2H)-pyridinepropanamine fumarate]	< 10
COc1cncnc1N(C)CCCN1CC=C(c2cccc3ccccc23)CC1 [Example 21, 3,6-dihydro-N-(5-methoxy-4-pyrimidinyl)-N-methyl-4-(1-naphthalenyl)-1(2H)-pyridinepropanamine fumarate]	< 10
CCN(CCCN1CC=C(c2cccc3ccccc23)CC1)c1ncncc1OC [Example 22, 3,6-dihydro-N-(5-methoxy-4-pyrimidinyl)-N-ethyl-4-(1-naphthalenyl)-1(2H)-pyridinepropanamine fumarate]	< 10
COc1ccc2cccc(C3=CCN(CCCNc4ncncc4OC)CC3)c2c1 [Example 23, 3,6-dihydro-4-(7-methoxy-1-naphthalenyl)-N-(5-methoxy-4-pyrimidinyl)-1(2H)-pyridinepropanamine fumarate]	< 100
COc1cncnc1NCCCN1CC=C(c2cccc3ccc(F)cc23)CC1 [Example 24, 3,6-dihydro-4-(7-fluoro-1-naphthalenyl)-N-(5-methoxy-4-pyrimidinyl-1(2H)-pyridinepropanamine fumarate]	< 500
COc1cncnc1NCCCN1CC=C(c2cccc3ccc(Cl)cc23)CC1 [Example 25, 3,6-dihydro-4-(7-chloro-1-naphthalenyl)-N-(5-methoxy-4-pyrimidinyl)-1(2H)-pyridinepropanamine fumarate]	< 500
COc1cncnc1NCCN1CC=C(c2cccc3ccccc23)CC1 [Example 26, 3.6-dihydro-4-(1-naphthalenyl)-N-(5-methoxy-4-pyrimidinyl)-1(2H)-pyridineethanamine fumarate]	< 100
COc1cncnc1NCCCN1CC=C(c2cccc3ccccc23)CC1 [Example 27, 3.6-dihydro-4-(1-naphthalenyl)-N-(5-methoxy-4-pyrimidinyl)-1(2H)-pyridinepropanamine hydrochloride]	< 10
CCOc1cncnc1NCCCN1CC=C(c2cccc3ccccc23)CC1 [Example 28, 3,6-dihydro-4-(1-naphthalenyl)-N-(5-ethoxy-4-pyrimidinyl)-1-(2H)-pyridinepropanamine fumarate]	< 10
COc1cnccc1NCCCN1CC=C(c2cccc3ccccc23)CC1 [Example 29, 3,6-dihydro:4-(1-naphthalenyl)-N-(3-methoxy-4-pyridinyl)-1(2H)-pyridinepropanamine fumarate]	< 100
Clc1nccnc1NCCCN1CC=C(c2cccc3ccccc23)CC1 [Example 30, 3,6-dihydro-4-(1-naphthalenyl)-N-(3-chloro-2-pyrazinyl)-1(2H)-pyridinepropanamine fumarate]	< 10
COc1nccnc1NCCCN1CC=C(c2cccc3ccccc23)CC1 [Example 31, 3,6-dihydro-4-(1-naphthalenyl)-N-(3-methoxy-2-pyrazinyl)-1(2H)-pyridinepropanamine fumarate]	< 10
COc1cncnc1NCCCCN1CC=C(c2cccc3ccccc23)CC1 [Example 32, 3,6-dihydro-N-(5-methoxy-4-pyrimidinyl)-4-(1-naphthalenyl)-1(2H)-pyridinebutanamine fumarate]	< 100
COc1cccnc1NCCCN1CC=C(c2cccc3ccccc23)CC1 [Example 33, 3,6-dihydro-N-(3-methoxy-2-pyridinyl)-4-(1-naphthalenyl)-1(2H)pyridinepropanamine fumarate]	< 10
CCOc1cccnc1NCCCN1CC=C(c2cccc3ccccc23)CC1 [Example 34, 3,6-dihydro-N-(3-ethoxy-2-pyridinyl)-4-(1-naphthalenyl)-1(2H)-pyridinepropanamine fumarate]	< 10
FC(F)(F)c1cccc(NCCCN2CC=C(c3cccc4ccccc34)CC2)n1 [Example 35, 3,6-dihydro-N-(6-trifluoromethyl-2-pyridinyl)-4-(1-napthalenyl)-1(2H)-pyridinepropanamine fumarate]	< 100
Clc1ccc(NCCCN2CC=C(c3cccc4ccccc34)CC2)nc1 [Example 36, 3,6-dihydro-N-(5-chloro-2-pyridinyl)-4-(1-naphthalenyl)-1(2H)-pyridinepropanamine fumarate]	< 10
FC(F)(F)c1ccnc(NCCCN2CC=C(c3cccc4ccccc34)CC2)c1 [Example 37, 3,6dihydro-N-(4-trifluromethyl-2-pyridinyl)-4-(1-napthalenyl-1(2H)-pyridinepropanamine fumarate]	< 100
COc1cncnc1NCCCN1CCC(c2cccc3ccccc23)CC1 [Example 38, 4-(1-naphthalenyl)-N-(5-methoxy-4-pyrimidinyl)-1-piperidinepropanaminefumarate]	< 10
C1=C(c2cccc3ccccc23)CCN(CCCNc2cccc3ccccc23)C1 [Example 39, 3,6-dihydro-N-(1-naphthalenyl)-4-(1-naphthalenyl)-1(2H)-pyridinepropanamine fumarate]	< 10
COc1ccccc1NCCCN1CC=C(c2cccc3ccccc23)CC1 [Example 40, 3,6-dihydro-N-(2-methoxyphenyl)-4-(1-naphthalenyl)-1-(2H)-pyridinepropanamine fumarate]	< 10
Clc1cccc(NCCCN2CC=C(c3cccc4ccccc34)CC2)c1 [Example 41, 3,6-dihydro-N-(3-chlorophenyl)-4-(1-naphthalenyl)-1(2H)-pyridinepropanamine fumarate]	< 100
FC(F)(F)c1cccc(NCCCN2CC=C(c3cccc4ccccc34)CC2)c1 [Example 42, 3,6-dihydro-N-(3-trifluoromethylphenyl)-4-(1-naphthalenyl)-1(2H)-pyridinepropanamine fumarate]	< 100
